Assay results: patent US20260317324A1, “BIFUNCTIONAL COMPOUNDS FOR DEGRADING BRAF VIA UBIQUITIN PROTEOSOME PATHWAY” (Nurix Therapeutics, Inc., priority 2023, published 2026)

Assays:
Format in all cases: cell-based
BRAF G466V = target: T1, BRAF G466V (Homo sapiens, UniProt P15056, G466V); assay: BRAF HiBiT degradation assay, C-terminal HiBiT-tagged BRAF G466V overexpressed in HCT-116 BRAF−/− cells (clone 8), Nano-Glo HiBiT Lytic assay
T1 construct: Horizon Discovery (HCT-116 BRAF−/− cells); host or cells: HCT-116 BRAF−/− cells, clone 8, lentiviral transduction
Outline: (§1)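 HCT-116 BRAF−/− clones stably overexpressing C-terminal HiBiT-tagged mutant BRAF were seeded 24 h before treatment with an 11-point half-log series from 1 μM to 0.01 nM (0.2% DMSO final). Remaining protein was read by HiBiT lytic luminescence, with DMSO and wildtype-cell controls. DC50 was taken as the fitted concentration at 50% remaining protein; observed Dmax is reported relative to DMSO.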

BRAF G469A = target: T2, BRAF G469A (Homo sapiens, UniProt P15056, G469A); assay: BRAF HiBiT degradation assay, C-terminal HiBiT-tagged BRAF G469A overexpressed in HCT-116 BRAF−/− cells (clone 34), Nano-Glo HiBiT Lytic assay
T2 construct: Horizon Discovery (HCT-116 BRAF−/− cells); host or cells: HCT-116 BRAF−/− cells, clone 34, lentiviral transduction
Outline: as §1

BRAF D594G = target: T3, BRAF D594G (Homo sapiens, UniProt P15056, D594G); assay: BRAF HiBiT degradation assay, C-terminal HiBiT-tagged BRAF D594G overexpressed in HCT-116 BRAF−/− cells (clone 63), Nano-Glo HiBiT Lytic assay
T3 construct: Horizon Discovery (HCT-116 BRAF−/− cells); host or cells: HCT-116 BRAF−/− cells, clone 63, lentiviral transduction
Outline: as §1

BRAF V600E = target: T4, BRAF V600E (Homo sapiens, UniProt P15056, V600E); assay: BRAF HiBiT degradation assay, C-terminal HiBiT-tagged BRAF V600E A375 cells (clone 1F10), Nano-Glo HiBiT Lytic assay; conditions: for Dmax: A-375
T4 construct: endogenous C-terminal HiBiT fusion tag on BRAF V600E allele; endogenous in cells; host or cells: A375 clone 1F10 (CRISPR-Cas9 knock-in of the HiBiT tag; parental A375 from ATCC)
Outline: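 A375 cells (clone 1F10, endogenous C-terminal HiBiT on BRAF V600E) were seeded at 10,000 cells/well, grown 24 h, then dosed in duplicate with an 11-point series from 1 μM to 0.01 nM (0.2% DMSO). Nano-Glo HiBiT lytic luminescence was normalised to DMSO and wildtype-A375 background; DC50 was read at 50% protein remaining, alongside observed Dmax.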

[1] = BRAF G466V, DC50 at 50%: fitted conc. at Y=50
[2] = HCT-116, BRAF G466V, percentage protein degraded at maximal compound effect relative to DMSO
[3] = Class 2, BRAF G469A, DC50 at 50%: fitted conc. at Y=50
[4] = HCT-116, Class 2, BRAF G469A, percentage protein degraded at maximal compound effect relative to DMSO
[5] = BRAF D594G, DC50 at 50%: fitted conc. at Y=50
[6] = HCT-116, BRAF D594G, percentage protein degraded at maximal compound effect relative to DMSO
[7] = A375 (BRAF V600E), DC50 at 50%: fitted conc. at Y=50
[8] = A375 (BRAF V600E), percentage protein degraded at maximal compound effect relative to DMSO
[9] = BRAF G466V (Class 3), HCT-116 BRAF−/− cells, DC50 at 50% degradation
[10] = BRAF G466V (Class 3), HCT-116 BRAF−/− cells, observed Dmax relative to DMSO control
[11] = BRAF G469A (Class 2), HCT-116 BRAF−/− cells, DC50 at 50% degradation
[12] = BRAF G469A (Class 2), HCT-116 BRAF−/− cells, observed Dmax relative to DMSO control
[13] = BRAF D594G (Class 3), HCT-116 BRAF−/− cells, DC50 at 50% degradation
[14] = BRAF D594G (Class 3), HCT-116 BRAF−/− cells, observed Dmax relative to DMSO control
[15] = A375 (BRAF V600E, Class 1), DC50 at 50% degradation
[16] = A375 (BRAF V600E, Class 1), observed Dmax, % protein degraded relative to DMSO control

T3 sequence (P15056 whole entry D594G): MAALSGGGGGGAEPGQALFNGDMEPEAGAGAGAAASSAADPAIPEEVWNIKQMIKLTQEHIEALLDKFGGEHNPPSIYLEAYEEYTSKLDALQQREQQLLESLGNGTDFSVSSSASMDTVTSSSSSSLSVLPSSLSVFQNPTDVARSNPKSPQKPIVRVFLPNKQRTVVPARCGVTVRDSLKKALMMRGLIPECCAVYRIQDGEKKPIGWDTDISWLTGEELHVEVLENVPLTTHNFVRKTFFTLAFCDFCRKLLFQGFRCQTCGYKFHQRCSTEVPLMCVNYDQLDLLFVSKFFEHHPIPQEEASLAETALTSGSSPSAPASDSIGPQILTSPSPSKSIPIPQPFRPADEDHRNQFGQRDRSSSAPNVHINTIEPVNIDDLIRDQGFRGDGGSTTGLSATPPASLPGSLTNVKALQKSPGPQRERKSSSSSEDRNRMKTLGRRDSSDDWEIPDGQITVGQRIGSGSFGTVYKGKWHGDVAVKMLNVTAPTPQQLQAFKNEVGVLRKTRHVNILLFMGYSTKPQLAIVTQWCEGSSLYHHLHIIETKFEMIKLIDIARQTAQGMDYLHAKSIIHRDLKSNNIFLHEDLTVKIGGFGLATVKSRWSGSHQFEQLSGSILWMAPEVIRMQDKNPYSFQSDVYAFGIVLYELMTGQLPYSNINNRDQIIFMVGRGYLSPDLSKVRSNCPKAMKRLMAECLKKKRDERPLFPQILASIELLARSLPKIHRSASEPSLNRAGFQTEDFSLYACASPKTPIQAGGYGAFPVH
T2 sequence (P15056 whole entry G469A): as the sequence (P15056 whole entry D594G) above, with G469A, G594D counted along it
T4 sequence (P15056 whole entry V600E, the tested form may be a part): as the sequence (P15056 whole entry D594G) above, with G594D, V600E counted along it
T1 sequence (P15056 whole entry G466V): as the sequence (P15056 whole entry D594G) above, with G466V, G594D counted along it

Row | SMILES | DC50 (BRAF G466V; [1]) [µM] | Dmax (BRAF G466V; [2]) [%] | DC50 (BRAF G469A; [3]) [µM] | Dmax (BRAF G469A; [4]) [%] | DC50 (BRAF D594G; [5]) [µM] | Dmax (BRAF D594G; [6]) [%] | DC50 (BRAF V600E; [7]) [µM] | Dmax (BRAF V600E; [8]) [%] | DC50 (BRAF G466V; [9]) [µM] | Dmax (BRAF G466V; [10]) [%] | DC50 (BRAF G469A; [11]) [µM] | Dmax (BRAF G469A; [12]) [%] | DC50 (BRAF D594G; [13]) [µM] | Dmax (BRAF D594G; [14]) [%] | DC50 (BRAF V600E; [15]) [µM] | Dmax (BRAF V600E; [16]) [%]
1 | CCCS(=O)(=O)Nc1cccc(-c2nc(C3CCC4(CC3)CCN(C(=O)CCCCCc3ccc5c(c3)C(=O)N(C3CCC(=O)NC3=O)C5)CC4)sc2-c2ccnc(N)n2)c1F (racemic) [Compound 235, Rac-N-{3-[5-(2-aminopyrimidin-4-yl)-2-[3-(6-{2-[(3R)-2,6-dioxopiperidin-3-yl]-3-oxo-2,3-dihydro-1H-isoindol-5-yl}hexanoyl)-3-azaspiro[5.5]undecan-9-yl]-1,3-thiazol-4-yl]-2-fluorophenyl}propane-1-sulfonamide] | > 0.5 | 30 to 70 | > 0.5 | 30 to 70 | > 0.5 | 30 to 70 | < 0.01 | > 70 | – | – | – | – | – | – | – | –
2 | O=C1CC[C@H](c2ccc(N3CCC(CN4CCN(c5ccc(-n6cc(-c7cc(Cl)cc(NS(=O)(=O)N8CCCC8)c7F)c(-c7ccncc7)n6)nc5)CC4)CC3)nc2)C(=O)N1 [Compound 290, N-{5-chloro-3-[1-(5-{4-[(1-{5-[(3R)-2,6-dioxopiperidin-3-yl]pyridin-2-yl}piperidin-4-yl)methyl]piperazin-1-yl}pyridin-2-yl)-3-(pyridin-4-yl)-1H-pyrazol-4-yl]-2-fluorophenyl}pyrrolidine-1-sulfonamide] | – | – | – | – | – | – | – | – | < 0.01 | > 70 | < 0.01 | > 70 | < 0.01 | > 70 | < 0.01 | > 70
3 | O=C1CC[C@H](c2ccc(N3CCC(CN4CCN(c5ccc(-n6cc(-c7cc(F)cc(NS(=O)(=O)N8CCCC8)c7F)c(-c7ccncc7)n6)cc5)CC4)CC3)cc2)C(=O)N1 [Compound 299, N-{3-[1-(4-{4-[(1-{4-[(3R)-2,6-dioxopiperidin-3-yl]phenyl}piperidin-4-yl)methyl]piperazin-1-yl}phenyl)-3-(pyridin-4-yl)-1H-pyrazol-4-yl]-2,5-difluorophenyl}pyrrolidine-1-sulfonamide] | – | – | – | – | – | – | – | – | < 0.01 | > 70 | 0.01 to 0.05 | 30 to 70 | < 0.01 | 30 to 70 | < 0.01 | > 70
4 | CCCS(=O)(=O)Nc1cccc(-c2cn(-c3ccc(N4CCN(CC5CCN(c6ccc([C@H]7CCC(=O)NC7=O)cc6)CC5)[C@H](C)C4)cc3)nc2-c2ccncc2)c1F [Compound 378, N-[3-(1-{4-[(3R)-4-[(1-{4-[(3R)-2,6-dioxopiperidin-3-yl]phenyl}piperidin-4-yl)methyl]-3-methylpiperazin-1-yl]phenyl}-3-(pyridin-4-yl)-1H-pyrazol-4-yl)-2-fluorophenyl]propane-1-sulfonamide] | – | – | – | – | – | – | – | – | 0.01 to 0.05 | 30 to 70 | > 0.5 | 30 to 70 | > 0.5 | 30 to 70 | 0.01 to 0.05 | > 70
5 | CCCS(=O)(=O)Nc1cccc(-c2nc(C3(C)CCN(C(=O)C4CCN(CC5CCN(c6ccc(C7CCC(=O)NC7=O)cc6)CC5)CC4)CC3)sc2-c2ccnc(N)n2)c1F (racemic) [Compound 227, Rac-N-{3-[5-(2-aminopyrimidin-4-yl)-2-(1-{1-[(1-{4-[(3R)-2,6-dioxopiperidin-3-yl]phenyl}piperidin-4-yl)methyl]piperidine-4-carbonyl}-4-methylpiperidin-4-yl)-1,3-thiazol-4-yl]-2-fluorophenyl}propane-1-sulfonamide] | > 0.5 | 30 to 70 | > 0.5 | 30 to 70 | > 0.5 | 30 to 70 | < 0.01 | > 70 | – | – | – | – | – | – | – | –
6 | CCCS(=O)(=O)Nc1cccc(-c2cn(-c3ccc(C4CCN(CC5CCN(c6ccc(C7CCC(=O)NC7=O)c(F)c6)CC5)CC4)cc3)nc2-c2ccncc2)c1F (racemic) [Compound 23, Rac-N-{3-[1-(4-{1-[(1-{4-[(3R)-2,6-dioxopiperidin-3-yl]-3-fluorophenyl}piperidin-4-yl)methyl]piperidin-4-yl}phenyl)-3-(pyridin-4-yl)-1H-pyrazol-4-yl]-2-fluorophenyl}propane-1-sulfonamide] | 0.01 to 0.05 | 30 to 70 | > 0.5 | < 30 | > 0.5 | 30 to 70 | 0.01 to 0.05 | > 70 | – | – | – | – | – | – | – | –

The next lines start with the values.

Row | DC50 (BRAF G466V; [1]) [µM] | Dmax (BRAF G466V; [2]) [%] | DC50 (BRAF G469A; [3]) [µM] | Dmax (BRAF G469A; [4]) [%] | DC50 (BRAF D594G; [5]) [µM] | Dmax (BRAF D594G; [6]) [%] | DC50 (BRAF V600E; [7]) [µM] | Dmax (BRAF V600E; [8]) [%] | DC50 (BRAF G466V; [9]) [µM] | Dmax (BRAF G466V; [10]) [%] | DC50 (BRAF G469A; [11]) [µM] | Dmax (BRAF G469A; [12]) [%] | DC50 (BRAF D594G; [13]) [µM] | Dmax (BRAF D594G; [14]) [%] | DC50 (BRAF V600E; [15]) [µM] | Dmax (BRAF V600E; [16]) [%] | SMILES
7 | < 0.01 | 30 to 70 | 0.01 to 0.05 | 30 to 70 | 0.01 to 0.05 | 30 to 70 | < 0.01 | > 70 | – | – | – | – | – | – | – | – | CCN(C)S(=O)(=O)Nc1cccc(-c2nc(C(C)(C)C)sc2-c2ccnc(Nc3ccc(N4CCN(C(=O)CN5CCc6cc(C7CCC(=O)NC7=O)ccc6C5)CC4)c(F)c3)n2)c1F (racemic) [Compound 28, Rac-(3R)-3-[2-(2-{4-[4-({4-[2-tert-butyl-4-(3-{[ethyl(methyl)sulfamoyl]amino}-2-fluorophenyl)-1,3-thiazol-5-yl]pyrimidin-2-yl}amino)-2-fluorophenyl]piperazin-1-yl}-2-oxoethyl)-1,2,3,4-tetrahydroisoquinolin-6-yl]piperidine-2,6-dione]
8 | 0.01 to 0.05 | 30 to 70 | > 0.5 | 30 to 70 | > 0.5 | 30 to 70 | 0.01 to 0.05 | > 70 | – | – | – | – | – | – | – | – | CCCS(=O)(=O)Nc1cccc(-c2nc(C(C)(C)C)sc2-c2ccnc(Nc3ccc(N4CCN(CC5CCN(c6ccc([C@H]7CCC(=O)NC7=O)cc6)CC5)CC4)c(F)c3)n2)c1F [Compound 87, N-[3-(2-tert-butyl-5-{2-[(4-{4-[(1-{4-[(3R)-2,6-dioxopiperidin-3-yl]phenyl}piperidin-4-yl)methyl]piperazin-1-yl}-3-fluorophenyl)amino]pyrimidin-4-yl}-1,3-thiazol-4-yl)-2-fluorophenyl]propane-1-sulfonamide]
9 | 0.01 to 0.05 | 30 to 70 | 0.01 to 0.05 | 30 to 70 | < 0.01 | 30 to 70 | < 0.01 | > 70 | – | – | – | – | – | – | – | – | CCCS(=O)(=O)Nc1cccc(-c2nc(-c3ccc(N4CCN(CC5CCN(c6ccc(C7CCC(=O)NC7=O)cn6)CC5)CC4)cc3)sc2-c2ccnc(N)n2)c1F (racemic) [Compound 187, Rac-N-{3-[5-(2-aminopyrimidin-4-yl)-2-(4-{4-[(1-{5-[(3R)-2,6-dioxopiperidin-3-yl]pyridin-2-yl}piperidin-4-yl)methyl]piperazin-1-yl}phenyl)-1,3-thiazol-4-yl]-2-fluorophenyl}propane-1-sulfonamide]
10 | 0.01 to 0.05 | 30 to 70 | > 0.5 | 30 to 70 | < 0.01 | 30 to 70 | < 0.01 | > 70 | – | – | – | – | – | – | – | – | CCCS(=O)(=O)Nc1cccc(-c2nc(C3CCN(C(=O)C4CCN(C(=O)C5(C)CCN(c6ccc(C7CCC(=O)NC7=O)cn6)CC5)CC4)CC3)sc2-c2ccnc(N)n2)c1F (racemic) [Compound 193, Rac-N-{3-[5-(2-aminopyrimidin-4-yl)-2-{1-[1-(1-{5-[(3R)-2,6-dioxopiperidin-3-yl]pyridin-2-yl}-4-methylpiperidine-4-carbonyl)piperidine-4-carbonyl]piperidin-4-yl}-1,3-thiazol-4-yl]-2-fluorophenyl}propane-1-sulfonamide]
